Patent US5091169A, “Dipyridoxyl phosphate NMRI contrast agent compositions” (priority 1989, dated 1992)

Columns and labels:
[1] = Potentiometric titration of DPDP (ligand proton titration); assay type: physicochemical; settings: pH of 3 and above
From the text: The compound DPDP was studied potentiometrically from pH 11.2 to 2.0. Data sets were collected on a custom-built automatic potentiometric titration apparatus composed of a METROHM 655 DOSIMAT automatic buret, a FISHER ACCUMET pH meter with a CORNING calomel combination electrode, a custom-blown water jacketed titration cell, a BRINKMAN LAUDA K-2/R constant temperature bath and a COMMODORE 64 computer. The BASIC computer program TITRATOR (Harris, W. et al, J.Am.Chem.Soc. 101:6534 (1979)) runs the apparatus. Data analysis was performed on an IBM-AT computer using the least squares program, BETA (Harris, W. et al, supra), and the data analysis program, HANDNBAR (Harris, W. et al, supra). The titrants were standardized by phenophthalein titration as follows: KOH was calibrated against potassium hydrogen phthalate (a primary standard), and HCl solutions were calibrated against the KOH standard. The Mn(II)Cl2 solution was standardized with an EDTA titration using Erichrome Black T as the indicator. All solutions were made from distilled, deionized water that was further purified on a MILLI-Q cartridge system, degassed, and then kept under an atmosphere of argon which had been scrubbed for CO2 and O2. Additions of EDTA and Mn(II) solutions were performed using calibrated GILMOT pipets. […]

[2] = L'Eplathenier et al titrations; cited from earlier work

SMILES | ligand charge / deprotonation state [1] | oxidation of manganese(II) during titration [2]
Cc1ncc(COP(=O)(O)O)c(CN(CCN(CC(=O)O)Cc2c(COP(=O)(O)O)cnc(C)c2O)CC(=O)O)c1O [DPDP, N,N'-bis(3-hydroxy-2-methyl-5-phosphonomethyl-4-pyridylmethyl)ethylenediamine-N,N'-diacetic acid] | anionic and possesses deprotonated metal binding sites | 
O=C(O)CN(CCN(CC(=O)O)Cc1ccccc1O)Cc1ccccc1O [HBED, N,N'-bis(2-hydroxybenzyl)ethylenediamine-N,N'-diacetic acid] |  | the manganese(II) ion was oxidized by the phenolic ligand
